In this assay the target is T1, androgen receptor (AR) (Homo sapiens, UniProt P10275).
T1 sequence (P10275 1-920): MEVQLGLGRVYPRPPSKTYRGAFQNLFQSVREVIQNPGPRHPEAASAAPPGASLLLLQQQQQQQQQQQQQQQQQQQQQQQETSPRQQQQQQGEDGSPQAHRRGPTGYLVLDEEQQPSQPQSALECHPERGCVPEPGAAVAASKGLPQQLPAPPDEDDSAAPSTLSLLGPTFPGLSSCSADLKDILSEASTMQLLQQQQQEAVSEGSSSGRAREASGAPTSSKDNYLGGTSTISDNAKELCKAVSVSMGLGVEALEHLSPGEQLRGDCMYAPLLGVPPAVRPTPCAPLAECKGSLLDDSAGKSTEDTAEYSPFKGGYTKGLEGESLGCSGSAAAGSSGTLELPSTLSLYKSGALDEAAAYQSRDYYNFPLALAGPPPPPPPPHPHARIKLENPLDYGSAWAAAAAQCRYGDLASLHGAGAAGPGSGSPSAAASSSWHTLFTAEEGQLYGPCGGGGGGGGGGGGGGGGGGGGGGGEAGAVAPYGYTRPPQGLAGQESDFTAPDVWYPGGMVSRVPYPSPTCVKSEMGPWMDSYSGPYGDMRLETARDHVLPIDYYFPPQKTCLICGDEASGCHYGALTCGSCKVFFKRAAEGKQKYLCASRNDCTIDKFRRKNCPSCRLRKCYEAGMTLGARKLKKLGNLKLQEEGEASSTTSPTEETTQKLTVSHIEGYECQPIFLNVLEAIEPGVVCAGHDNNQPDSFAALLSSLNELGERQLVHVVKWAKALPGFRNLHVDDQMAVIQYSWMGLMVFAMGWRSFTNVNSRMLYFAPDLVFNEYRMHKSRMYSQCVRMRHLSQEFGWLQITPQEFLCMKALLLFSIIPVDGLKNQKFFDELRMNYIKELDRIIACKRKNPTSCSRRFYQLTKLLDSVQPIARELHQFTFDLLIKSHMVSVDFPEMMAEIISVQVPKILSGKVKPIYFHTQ
Kind of assay: Degradation of androgen receptor (AR) protein in VCaP cells by ELISA. The settings on record: for Dmax: VCaP. Format: cell-based. On the technique in general: In an ELISA, binding on a coated surface is turned into a signal by an enzyme label.

The mark [1] stands for this setting: AR degradation, VCaP cells, 16 h, ELISA, Table 3-1, read-out: DC50.
Setting [2] is: AR degradation, VCaP cells, 16 h, ELISA, Table 3-1, read-out: Dmax (%).

Each structure is given as a SMILES string. Read-outs that look alike come from different tables or passages of the source.

What is called DC50 is the concentration at which degradation of the target reaches its halfway point. For orientation: Dmax means the greatest extent of degradation seen. In the case of `N#Cc1ccc(O[C@H]2CC[C@H](NC(=O)c3ncc(N4CCC(CN5CCC6(CC5)CN(c5ccc7c(c5)C(=O)N(C5CCC(=O)NC5=O)C7=O)C6)CC4)cn3)CC2)cc1Cl` (stereo partly shown) [Compound 135], under setting [1], the DC50 was greater than 300 nM. Besides, under setting [2], the Dmax was less than 40%.

As for `N#Cc1ccc(O[C@H]2CC[C@H](NC(=O)c3ccc(N4CCC(CN5CCC(Oc6ccc7c(c6)C(=O)N(C6CCC(=O)NC6=O)C7=O)CC5)CC4)nn3)CC2)cc1Cl` (stereo partly shown) [Compound 147], the DC50 under setting [1] fell in the range of 10 to 100 nM. Moreover, under setting [2], the Dmax was 60 to 80%.

Regarding `N#Cc1ccc(O[C@H]2CC[C@H](NC(=O)c3ncc(N4CCC(CN5CCC6(CC5)CN(c5cc7c(cc5F)C(=O)N(C5CCC(=O)NC5=O)C7=O)C6)CC4)cn3)CC2)cc1Cl` (stereo partly shown) [Compound 148], the DC50 is greater than 300 nM and the Dmax lay within 40 to 60%.

Regarding `N#Cc1ccc(O[C@H]2CC[C@H](NC(=O)c3ncc(N4CCC(CN5CCC6(CC5)CN(c5ccc7c(c5)C(=O)N(C5CCC(=O)NC5=O)C7=O)C6)CC4)cn3)CC2)cc1Cl` (stereo partly shown) [Compound 149], the DC50 was greater than 300 nM and the Dmax is less than 40%.

`N#Cc1ccc(O[C@H]2CC[C@H](NC(=O)c3ncc(N4CC5(CCN(CC6CCN(c7cc8c(cc7F)C(=O)N(C7CCC(=O)NC7=O)C8=O)CC6)CC5)C4)cn3)CC2)cc1Cl` (stereo partly shown) [Compound 150]: the Dmax was less than 40%. Further, the DC50 under setting [1] was greater than 300 nM.

Regarding `N#Cc1ccc(O[C@H]2CC[C@H](NC(=O)c3ccc(N4CCC(CN5CCC6(CC5)CN(c5ccc7c(c5)C(=O)N(C5CCC(=O)NC5=O)C7=O)C6)CC4)nn3)CC2)cc1C(F)(F)F` (stereo partly shown) [Compound 151], the DC50 is less than 10 nM and the Dmax was greater than 80%.

As for `N#Cc1ccc(O[C@H]2CC[C@H](NC(=O)c3ccc(N4CCC(CN5CCC6(CC5)CN(c5cc7c(cc5F)C(=O)N(C5CCC(=O)NC5=O)C7=O)C6)CC4)nn3)CC2)cc1C(F)(F)F` (stereo partly shown) [Compound 152], the DC50 lay within 10 to 100 nM and the Dmax is greater than 80%.

`[2H]C([2H])([2H])Oc1cc(O[C@H]2CC[C@H](NC(=O)c3ccc(N4CCC(CN5CCC6(CC5)CN(c5ccc7c(c5)C(=O)N(C5CCC(=O)NC5=O)C7=O)C6)CC4)nn3)CC2)ccc1C#N` (stereo partly shown) [Compound 153] gave a DC50 of less than 10 nM and a Dmax greater than 80%.

Turning to `CCOc1cc(O[C@H]2CC[C@H](NC(=O)c3ccc(N4CCC(CN5CCC6(CC5)CN(c5ccc7c(c5)C(=O)N(C5CCC(=O)NC5=O)C7=O)C6)CC4)nn3)CC2)ccc1C#N` (stereo partly shown) [Compound 154], the DC50 was less than 10 nM and the Dmax was greater than 80%.

Turning to `COCCOc1cc(O[C@H]2CC[C@H](NC(=O)c3ccc(N4CCC(CN5CCC6(CC5)CN(c5ccc7c(c5)C(=O)N(C5CCC(=O)NC5=O)C7=O)C6)CC4)nn3)CC2)ccc1C#N` (stereo partly shown) [Compound 155], the DC50 was less than 10 nM and the Dmax was greater than 80%.

For `N#Cc1ccc(O[C@H]2CC[C@H](NC(=O)c3ccc(N4CCC5(CCN(C6CCN(c7cc8c(cc7F)C(=O)N(C7CCC(=O)NC7=O)C8=O)CC6)C5)C4)nn3)CC2)cc1Cl` (stereo partly shown) [Compound 166, N-((1r,4r)-4-(3-chloro-4-cyanophenoxy)cyclohexyl)-6-(7-(1-(2-(2,6-dioxopiperidin-3-yl)-6-fluoro-1,3-dioxoisoindolin-5-yl)piperidine-4-yl)-2,7-diazaspiro[4.4]nonan-2-yl)pyridazine-3-formamide], the DC50 under setting [1] was less than 10 nM. For the same compound, the Dmax under setting [2] is greater than 80%.

As for `C[C@H]1CN(c2ccc(C(=O)N[C@H]3CC[C@H](Oc4ccc(C#N)c(Cl)c4)CC3)nn2)CCN1C[C@H]1[C@@H]2CN(c3cc4c(cc3F)C(=O)N(C3CCC(=O)NC3=O)C4=O)C[C@@H]21` (stereo partly shown) [Compound 168], under setting [1], the DC50 is less than 10 nM. Besides, the Dmax under setting [2] is greater than 80%.

For `C[C@H]1CN(c2cnc(C(=O)N[C@H]3CC[C@H](Oc4ccc(C#N)c(Cl)c4)CC3)cn2)CCN1C[C@H]1[C@@H]2CN(c3cc4c(cc3F)C(=O)N(C3CCC(=O)NC3=O)C4=O)C[C@@H]21` (stereo partly shown) [Compound 169], the DC50 under setting [1] lay in the range of 10 to 100 nM. Besides, the Dmax under setting [2] lay in the range of 60 to 80%.

As for `C[C@H]1CN(C[C@@H]2[C@H]3CN(c4cc5c(cc4F)C(=O)N(C4CCC(=O)NC4=O)C5=O)C[C@@H]23)CCN1c1ccc(C(=O)N[C@H]2CC[C@H](Oc3ccc(C#N)c(Cl)c3)CC2)nn1` (stereo partly shown) [Compound 170], the DC50 under setting [1] was less than 10 nM. Moreover, the Dmax under setting [2] is greater than 80%.

Turning to `C[C@H]1CN(C[C@@H]2[C@H]3CN(c4cc5c(cc4F)C(=O)N(C4CCC(=O)NC4=O)C5=O)C[C@@H]23)CCN1c1cnc(C(=O)N[C@H]2CC[C@H](Oc3ccc(C#N)c(Cl)c3)CC2)cn1` (stereo partly shown) [Compound 171], under setting [1], the DC50 is 10 to 100 nM. Also, the Dmax under setting [2] was greater than 80%.

As to `N#Cc1ccc(O[C@H]2CC[C@H](NC(=O)c3cnc(N4CCC(CN5CCC6(C5)CN(c5cc7c(cc5F)C(=O)N(C5CCC(=O)NC5=O)C7=O)C6)CC4)cn3)CC2)cc1Cl` (stereo partly shown) [Compound 186, N-((1r,4r)-4-(3-chloro-4-cyanophenoxy)cyclohexyl)-5-(4-((2-(2-(2,6-dioxopiperidin-3-yl)-6-fluoro-1,3-dioxoisoindolin-5-yl)-2,6-diazaspiro[3.4]octan-6-yl)methyl)piperidin-1-yl)pyrazine-2-carboxamide], the DC50 under setting [1] is less than 10 nM. The Dmax under setting [2] was greater than 80%.

With `N#Cc1ccc(O[C@H]2CC[C@H](NC(=O)c3cnc(N4CCC(CN5CCC6(C5)CN(c5ccc7c(c5)C(=O)N(C5CCC(=O)NC5=O)C7=O)C6)CC4)cn3)CC2)cc1Cl` (stereo partly shown) [Compound 187, N-((1r,4r)-4-(3-chloro-4-cyanophenoxy)cyclohexyl)-5-(4-((2-(2-(2,6-dioxopiperidin-3-yl)-1,3-dioxoisoindolin-5-yl)-2,6-diazaspiro[3.4]octan-6-yl)methyl)piperidin-1-yl)pyrazine-2-carboxamide], the DC50 under setting [1] was less than 10 nM. For the same compound, under setting [2], the Dmax was greater than 80%.

With `N#Cc1ccc(O[C@H]2CC[C@H](NC(=O)c3cnc(N4CCC(CN5CC6(CCN(c7cc8c(cc7F)C(=O)N(C7CCC(=O)NC7=O)C8=O)C6)C5)CC4)cn3)CC2)cc1Cl` (stereo partly shown) [Compound 188, N-((1r,4r)-4-(3-chloro-4-cyanophenoxy)cyclohexyl)-5-(4-((6-(2-(2,6-dioxopiperidin-3-yl)-6-fluoro-1,3-dioxoisoindolin-5-yl)-2,6-diazaspiro[3.4]octan-2-yl)methyl)piperidin-1-yl)pyrazine-2-carboxamide], the DC50 under setting [1] was less than 10 nM. In addition, under setting [2], the Dmax was greater than 80%.

Take `N#Cc1ccc(O[C@H]2CC[C@H](NC(=O)c3cnc(N4CCC5(CN(CC6CCN(c7cc8c(cc7F)C(=O)N(C7CCC(=O)NC7=O)C8=O)CC6)C5)C4)cn3)CC2)cc1Cl` (stereo partly shown) [Compound 189, N-((1r,4r)-4-(3-chloro-4-cyanophenoxy)cyclohexyl)-5-(2-((1-(2-(2,6-dioxopiperidin-3-yl)-6-fluoro-1,3-dioxoisoindolin-5-yl)piperidine-4-yl)methyl)-2,6-diazaspiro[3.4]octan-6-yl)pyrazine-2-carboxamide]: under setting [1], the DC50 was less than 10 nM. Besides, under setting [2], the Dmax was greater than 80%.

For the compound `N#Cc1ccc(O[C@H]2CC[C@H](NC(=O)c3ccc(N4CCC5(CC4)CN(CC4CCN(c6ccc7c(c6)C(=O)N(C6CCC(=O)NC6=O)C7=O)CC4)C5)nn3)CC2)cc1Cl` (stereo partly shown) [Compound 190, N-((1r,4r)-4-(3-chloro-4-cyanophenoxy)cyclohexyl)-6-(2-((1-(2-(2,6-dioxopiperidin-3-yl)-1,3-dioxoisoindolin-5-yl)piperidine-4-yl)methyl)-2,7-diazaspiro[3.5]nonan-7-yl)pyridazine-3-formamide], the DC50 under setting [1] was less than 10 nM. Moreover, under setting [2], the Dmax is greater than 80%.

As for `N#Cc1ccc(O[C@H]2CC[C@H](NC(=O)c3ccc(N4CCC(CN5CCC6(CC5)CN(c5cc7c(cc5F)C(=O)N(C5CCC(=O)NC5=O)C7=O)C6)CC4)cc3)CC2)cc1Cl` (stereo partly shown) [Compound 191, N-((1r,4r)-4-(3-chloro-4-cyanophenoxy)cyclohexyl)-4-(4-((2-(2-(2,6-dioxopiperidin-3-yl)-6-fluoro-1,3-dioxoisoindolin-5-yl)-2,7-diazaspiro[3.5]nonan-7-yl)methyl)piperidin-1-yl)benzamide], under setting [1], the DC50 is less than 10 nM. Under setting [2], the Dmax was greater than 80%.

Consider `N#Cc1ccc(O[C@H]2CC[C@H](NC(=O)c3ccc(N4CCC(CN5CCC6(CC5)CN(c5ccc7c(c5)C(=O)N(C5CCC(=O)NC5=O)C7=O)C6)CC4)cc3)CC2)cc1Cl` (stereo partly shown) [Compound 192], for which the DC50 under setting [1] was less than 10 nM. Besides, the Dmax under setting [2] is greater than 80%.

On to `N#Cc1ccc(O[C@H]2CC[C@H](NC(=O)c3nnc(N4CC5(CCN(C6CCN(c7ccc8c(c7)C(=O)N(C7CCC(=O)NC7=O)C8=O)CC6)CC5)C4)s3)CC2)cc1Cl` (stereo partly shown) [Compound 193, N-((1r,4r)-4-(3-chloro-4-cyanophenoxy)cyclohexyl)-5-(7-(1-(2-(2,6-dioxopiperidin-3-yl)-1,3-dioxoisoindolin-5-yl)piperidine-4-yl)-2,7-diazaspiro[3.5]nonan-2-yl)-1,3,4-thiadiazole-2-carboxamide], for which the DC50 under setting [1] was less than 10 nM. Also, the Dmax under setting [2] was greater than 80%.

The record behind these values is US20230091225A1, “Bifunctional chimeric heterocyclic compounds for targeted degradation of androgen receptors and use thereof” (HINOVA PHARMACEUTICALS INC., priority 2019, published 2023).
